Columns and labels:
Type in all cases: in vivo
[1] = tested on: foxtail, giant (giant foxtail, Setaria faberii); experiment: Test A greenhouse herbicide test, pre- and postemergence
In short: (§1)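 Visual injury ratings, 0 (no effect) to 100 (complete control), versus untreated plants after roughly 10 d in a greenhouse. Compounds, formulated in a surfactant-containing non-phytotoxic solvent, were sprayed on loam–sand soil after sowing (pre) or on one- to two-leaf plants 2–10 cm tall (post).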

[2] = tested on: pigweed (Amaranthus retroflexus); experiment: as above
In short: as §1

[3] = tested on: corn (Zea mays); experiment: as above; conditions: Postemergence
In short: as §1

[4] = tested on: barnyardgrass (Echinochloa crus-galli); experiment: as above
In short: as §1

[5] = tested on: ragweed (common ragweed, Ambrosia elatior); experiment: as above
In short: as §1

[6] = tested on: wheat (Triticum aestivum); experiment: as above; conditions: Postemergence
In short: as §1

[7] = tested on: ryegrass, Italian (Italian ryegrass, Lolium multiflorum); experiment: as above
In short: as §1

[8] = tested on: kochia (Kochia scoparia); experiment: as above
In short: as §1

[9] = tested on: blackgrass (Alopecurus myosuroides); experiment: Test A greenhouse herbicide test, postemergence
In short: (§2)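 Scores are visual injury ratings from 0 (no effect) to 100 (complete control) versus untreated plants, taken roughly 10 d after treatment in the greenhouse. Treatment was postemergence, on one- to two-leaf plants 2–10 cm high growing in a loam soil/sand mix.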

[10] = tested on: galium (catchweed bedstraw, Galium aparine); experiment: Test A greenhouse herbicide test, postemergence
In short: as §2

[11] = tested on: oat, wild (wild oat, Avena fatua); experiment: Test C greenhouse herbicide test, postemergence
In short: (§3)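 Steps: pot plants in peat-based medium; spray postemergence at 1- to 4-leaf stage; hold in greenhouse 13 to 15 d; score visually against controls from 0 (no effect) to 100 (complete control).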

[12] = tested on: kochia (Kochia scoparia); experiment: Test C greenhouse herbicide test, postemergence
In short: as §3

[13] = Postemergence, 125 g ai/ha, visual rating after approx. 10 d, 0 to 100 scale (0 no effect, 100 complete control)
[14] = Postemergence, 500 g ai/ha, 0 to 100 scale, 0 is no effect, 100 is complete control
[15] = Preemergence, 125 g ai/ha, 0 to 100 scale where 0 is no effect and 100 is complete control
[16] = Preemergence, 500 g ai/ha, 0 to 100 scale, 0 no effect, 100 complete control
[17] = 125 g ai/ha, visual rating after approx. 10 d, 0 to 100 scale (0 no effect, 100 complete control)
[18] = 500 g ai/ha, 0 to 100 scale, 0 is no effect, 100 is complete control
[19] = Postemergence, 31 g ai/ha, 0 to 100 scale (0 no effect, 100 complete control)
[20] = Postemergence, 125 g ai/ha, scale 0 to 100, 0 is no effect, 100 is complete control
[21] = Postemergence, 250 g ai/ha, scale 0 to 100, 0 no effect, 100 complete control, 13 to 15 d
[22] = postemergence, 62 g ai/ha, scale 0 to 100, 0 no effect, 100 complete control

SMILES: COc1nn(C)c(=O)c(-c2c(C)ccc3ccccc23)c1OC(=O)OC(C)C [Compound 36]
- Plant response rating, Foxtail, Giant [1, 13]: 80
- Foxtail, Giant plant response rating [1, 14]: 90
- Foxtail, Giant plant response rating [1, 15]: 80
- Plant response rating, Foxtail, Giant [1, 16]: 90
- Plant response rating, Pigweed [2, 13]: 90
- Pigweed plant response rating [2, 14]: 90
- Pigweed plant response rating [2, 15]: 100
- Plant response rating, Pigweed [2, 16]: 100
- Plant response rating, Corn [3, 17]: 20
- Corn plant response rating [3, 18]: 40
- Plant response rating, Barnyardgrass [4, 13]: 50
- Barnyardgrass plant response rating [4, 14]: 80
- Barnyardgrass plant response rating [4, 15]: 0
- Plant response rating, Barnyardgrass [4, 16]: 30
- Plant response rating, Ragweed [5, 13]: 90
- Ragweed plant response rating [5, 14]: 90
- Ragweed plant response rating [5, 15]: 80
- Plant response rating, Ragweed [5, 16]: 90
- Plant response rating, Wheat ([6]; 125 g ai/ha, 0 to 100 scale where 0 is no effect and 100 is complete control): 20
- Wheat plant response rating [6, 18]: 30
- Plant response rating, Ryegrass, Italian ([7]; Postemergence, 125 g ai/ha, 0 to 100 scale where 0 is no effect and 100 is complete control): 70
- Ryegrass, Italian plant response rating [7, 14]: 80
- Ryegrass, Italian plant response rating [7, 15]: 70
- Plant response rating, Ryegrass, Italian [7, 16]: 70
- Plant response rating, Kochia [8, 13]: 90
- Kochia plant response rating [8, 14]: 100
- Kochia plant response rating [8, 15]: 10
- Plant response rating, Kochia [8, 16]: 80
- Plant response rating, Blackgrass [9, 17]: 60
- Blackgrass plant response rating [9, 18]: 80
- Plant response rating, Galium [10, 17]: 100
- Galium plant response rating [10, 18]: 100
- Oat, Wild plant response rating [11, 19]: 50
- Plant response rating, Oat, Wild [11, 20]: 65
- Plant response rating, Oat, Wild [11, 21]: 85
- Oat, Wild plant response rating [11, 22]: 60
- Kochia plant response rating [12, 19]: 50
- Plant response rating, Kochia [12, 20]: 55
- Plant response rating, Kochia [12, 21]: 90
- Kochia plant response rating [12, 22]: 55
